Data published in US10035760B2, “Inhibitors of human immunodeficiency virus replication” (priority 2013, dated 2018).
Where two headings read alike, the source gives them in different places.

Tested on: recombinant NL4-3 virus (Renilla luciferase) in MT-2 cells
Experiment: HIV cell culture assay (antiviral activity, luciferase readout in infected MT-2 cells)
Assay type: cell-based
Method: HIV cell culture assay—MT-2 cells, 293T cells and the proviral DNA clone of NL4-3 virus were obtained from the NIH AIDS Research and Reference Reagent Program. MT-2 cells were propagated in RPMI 1640 media supplemented with 10% heat inactivated fetal bovine serum (FBS), 100 ug/ml penicillin G and up to 100 units/ml streptomycin. The 293T cells were propagated in DMEM media supplemented with 10% heat inactivated FBS, 100 ug/ml penicillin G and 100 ug/ml streptomycin. A recombinant NL4-3 proviral clone, in which a section of the nef gene was replaced with the Renilla luciferase gene, was used to make the reference virus used in these studies. The recombinant virus was prepared through transfection of the recombinant NL4-3 proviral clone into 293T cells using Transit-293 Transfection Reagent from Mirus Bio LLC (Madison, Wis.). Supernatent was harvested after 2-3 days after transfection, and the amount of virus present was titered in MT-2 cells using luciferase enzyme activity as a marker. Luciferase activity was quantitated using the EnduRen Live Cell Substrate from Promega (Madison, Wis.). Antiviral activities of compounds toward the recombinant virus were quantified by measuring luciferase activity in MT-2 cells infected for 4-5 days with the recombinant virus in the presence of serial dilutions of the compound.
The 50% effective concentration (EC50) was calculated by using the exponential form of the median effect equation where (Fa)=1/[1+(ED50/drug conc.)^m](Johnson V A, Byington R T. Infectivity Assay. In Techniques in HIV Research. ed. Aldovini A, Walker B D. 71-76. New York: Stockton Press. 1990).

[1] = Renilla, NL43, read-out: Activity, antiviral activity class, recombinant NL4-3 Renilla luciferase virus in MT-2 cells
[2] = Renilla, NL43, recombinant NL4-3 Renilla luciferase virus in MT-2 cells

Compound	EC50 [1]	EC50 [2]	EC50 (read-out: Activity, antiviral activity class, recombinant NL4-3 Renilla luciferase virus in MT-2 cells)
CN(C(=O)[C@H](Cc1ccccc1)NC(=O)NS(=O)(=O)C1CC1)c1ccc2c(c1)OCO2 [Example 42, (S)—N-(benzo[d][1,3]dioxol-5-yl)-2-(3-(cyclopropylsulfonyl)ureido)-N-methyl-3-phenylpropanamide]	100 to 1000 nM	480 nM	
CC(C)S(=O)(=O)NC(=O)N[C@@H](Cc1ccccc1)C(=O)N(C)c1ccc2c(c1)OCO2 [Example 43, (S)—N-(benzo[d][1,3]dioxol-5-yl)-2-(3-(isopropylsulfonyl)ureido)-N-methyl-3-phenylpropanamide]	100 to 1000 nM		
CN(C(=O)[C@H](Cc1ccccc1)NC(=O)NS(C)(=O)=O)c1ccc2c(c1)OCO2 [Example 44, (S)—N-(benzo[d][1,3]dioxol-5-yl)-N-methyl-2-(3-(methylsulfonyl)ureido)-3-phenylpropanamide]	1000 to 10000 nM	2480 nM	
CC(C)CS(=O)(=O)NC(=O)N[C@@H](Cc1ccccc1)C(=O)N(C)c1ccc2c(c1)OCO2 [Example 45, (S)—N-(benzo[d][1,3]dioxol-5-yl)-2-(3-(isobutylsulfonyl)ureido)-N-methyl-3-phenylpropanamide]	100 to 1000 nM		
CN(C(=O)[C@H](Cc1ccccc1)NC(=O)NS(=O)(=O)C(C)(C)C)c1ccc2c(c1)OCO2 [Example 46, (S)—N-(benzo[d][1,3]dioxol-5-yl)-2-(3-(tert-butylsulfonyl)ureido)-N-methyl-3-phenylpropanamide]	1000 to 10000 nM		
CN(C(=O)[C@H](Cc1ccccc1)NC(=O)N(C)S(=O)(=O)c1ccccc1Br)c1ccc2c(c1)OCO2 [Example 47, (S)—N-(benzo[d][1,3]dioxol-5-yl)-2-(3-((2-bromophenyl)sulfonyl)-3-methylureido)-N-methyl-3-phenylpropanamid]	1000 to 10000 nM		
CN(C(=O)[C@H](Cc1ccccc1)NC(=O)NS(=O)(=O)c1ccccc1-c1cnn(C)c1)c1ccc2c(c1)OCO2 [Example 49, (S)—N-(benzo[d][1,3]dioxol-5-yl)-N-methyl-2-(3-((2-(1-methyl-1H-pyrazol-4-yl)phenyl)sulfonyl)ureido)-3-phenylpropanamide]		1340 nM	1000 to 10000 nM
CN(C(=O)[C@H](Cc1ccccc1)NC(=O)NS(=O)(=O)c1ccccc1-c1ccoc1)c1ccc2c(c1)OCO2 [Example 50, (S)—N-(benzo[d][1,3]dioxol-5-yl)-2-(3-((2-(furan-3-yl)phenyl)sulfonyl)ureido)-N-methyl-3-phenylpropanamide]	100 to 1000 nM		
Cc1ccccc1S(=O)(=O)NC(=O)N[C@@H](Cc1ccc(Cl)cc1)C(=O)N(C)c1ccc2c(c1)OCO2 [Example 51, (S)—N-(benzo[d][1,3]dioxol-5-yl)-3-(4-chlorophenyl)-N-methyl-2-(3-(o-tolylsulfonyl)ureido)propanamide]	100 to 1000 nM	490 nM	
CCOc1ccc(C[C@H](NC(=O)NS(=O)(=O)c2ccccc2C)C(=O)N(C)c2ccc3c(c2)OCO3)cc1 [Example 52, (S)—N-(benzo[d][1,3]dioxol-5-yl)-3-(4-ethoxyphenyl)-N-methyl-2-(3-(o-tolylsulfonyl)ureido)propanamide]	1000 to 10000 nM	6230 nM	
Cc1ccccc1C[C@H](NC(=O)NS(=O)(=O)c1ccccc1C)C(=O)N(C)c1ccc2c(c1)OCO2 [Example 53, (S)—N-(benzo[d][1,3]dioxol-5-yl)-N-methyl-3-(o-tolyl)-2-(3-(o-tolylsulfonyl)ureido)propanamide]	100 to 1000 nM		
Cc1ccccc1S(=O)(=O)NC(=O)N[C@@H](Cc1ccccc1Cl)C(=O)N(C)c1ccc2c(c1)OCO2 [Example 54, (S)—N-(benzo[d][1,3]dioxol-5-yl)-3-(2-chlorophenyl)-N-methyl-2-(3-(o-tolylsulfonyl)ureido)propanamide]	100 to 1000 nM		
Cc1ccccc1S(=O)(=O)NC(=O)N[C@@H](Cc1cccc(Cl)c1)C(=O)N(C)c1ccc2c(c1)OCO2 [Example 55, (S)—N-(benzo[d][1,3]dioxol-5-yl)-3-(3-chlorophenyl)-N-methyl-2-(3-(o-tolylsulfonyl)ureido)propanamide]	100 to 1000 nM		
COc1ccc(C[C@H](NC(=O)NS(=O)(=O)c2ccccc2C)C(=O)N(C)c2ccc3c(c2)OCO3)cc1 [Example 56, (S)—N-(benzo[d][1,3]dioxol-5-yl)-3-(4-methoxyphenyl)-N-methyl-2-(3-(o-tolylsulfonyl)ureido)propanamide]	1000 to 10000 nM		
Cc1ccccc1S(=O)(=O)NC(=O)N[C@@H](Cc1ccc(Br)cc1)C(=O)N(C)c1ccc2c(c1)OCO2 [Example 57, (S)—N-(benzo[d][1,3]dioxol-5-yl)-3-(4-bromophenyl)-N-methyl-2-(3-(o-tolylsulfonyl)ureido)propanamide]	1000 to 10000 nM		
C=CCOc1ccc(C[C@H](NC(=O)NS(=O)(=O)c2ccccc2C)C(=O)N(C)c2ccc3c(c2)OCO3)cc1 [Example 58, (S)-3-(4-(allyloxy)phenyl)-N-(benzo[d][1,3]dioxol-5-yl)-N-methyl-2-(3-(o-tolylsulfonyl)ureido)propanamide]	1000 to 10000 nM		
Cc1ccccc1S(=O)(=O)NC(=O)N[C@@H](Cc1ccc(Cl)c(Cl)c1)C(=O)N(C)c1ccc2c(c1)OCO2 [Example 59, (S)—N-(benzo[d][1,3]dioxol-5-yl)-3-(3,4-dichlorophenyl)-N-methyl-2-(3-(o-tolylsulfonyl)ureido)propanamide]	1000 to 10000 nM	1040 nM	
Cc1ccccc1S(=O)(=O)NC(=O)N[C@@H](Cc1ccc(F)c(F)c1)C(=O)N(C)c1ccc2c(c1)OCO2 [Example 60, (S)—N-(benzo[d][1,3]dioxol-5-yl)-3-(3,4-difluorophenyl)-N-methyl-2-(3-(o-tolylsulfonyl)ureido)propanamide]	100 to 1000 nM	230 nM	
Cc1ccccc1S(=O)(=O)NC(=O)N[C@@H](Cc1ccc(C(F)(F)F)cc1)C(=O)N(C)c1ccc2c(c1)OCO2 [Example 61, (S)—N-(benzo[d][1,3]dioxol-5-yl)-N-methyl-2-(3-(o-tolylsulfonyl)ureido)-3-(4-(trifluoromethyl)phenyl)propanamide]	1000 to 10000 nM	6620 nM	
Cc1ccccc1S(=O)(=O)NC(=O)N[C@@H](Cc1cccc(C#N)c1)C(=O)N(C)c1ccc2c(c1)OCO2 [Example 62, (S)—N-(benzo[d][1,3]dioxol-5-yl)-3-(3-cyanophenyl)-N-methyl-2-(3-(o-tolylsulfonyl)ureido)propanamide]	1000 to 10000 nM		
Cc1ccccc1S(=O)(=O)NC(=O)N[C@@H](Cc1ccc(C#N)cc1)C(=O)N(C)c1ccc2c(c1)OCO2 [Example 63, (S)—N-(benzo[d][1,3]dioxol-5-yl)-3-(4-cyanophenyl)-N-methyl-2-(3-(o-tolylsulfonyl)ureido)propanamide]	1000 to 10000 nM		
COC(=O)c1cccc(C[C@H](NC(=O)NS(=O)(=O)c2ccccc2C)C(=O)N(C)c2ccc3c(c2)OCO3)c1 [Example 64, (S)-methyl 3-(3-(benzo[d][1,3]dioxol-5-yl(methyl)amino)-3-oxo-2-(3-(o-tolylsulfonyl)ureido)propyl)benzoate]	1000 to 10000 nM		
Cc1ccccc1S(=O)(=O)NC(=O)N[C@H](C(=O)N(C)c1ccc2c(c1)OCO2)[C@@H](C)c1ccccc1 [Example 65, (2S,3S)—N-(benzo[d][1,3]dioxol-5-yl)-N-methyl-3-phenyl-2-(3-(o-tolylsulfonyl)ureido)butanamide]	1000 to 10000 nM	6830 nM	
Cc1ccccc1S(=O)(=O)NC(=O)N[C@@H](Cc1ccccc1C(N)=O)C(=O)N(C)c1ccc2c(c1)OCO2 [Example 66, (S)-2-(3-(benzo[d][1,3]dioxol-5-yl(methyl)amino)-3-oxo-2-(3-(o-tolylsulfonyl)ureido)propyl)benzamide]		> 100000 nM	
Cc1ccccc1S(=O)(=O)NC(=O)N[C@@H](Cc1cc(F)cc(F)c1)C(=O)N(C)c1ccc2c(c1)OCO2 [Example 67, (S)—N-(benzo[d][1,3]dioxol-5-yl)-3-(3,5-difluorophenyl)-N-methyl-2-(3-(o-tolylsulfonyl)ureido)propanamide]	100 to 1000 nM		
Cc1ccccc1S(=O)(=O)NC(=O)N[C@@H](Cc1ccc(OCc2ccccc2)cc1)C(=O)N(C)c1ccc2c(c1)OCO2 [Example 68, (S)—N-(benzo[d][1,3]dioxol-5-yl)-3-(4-(benzyloxy)phenyl)-N-methyl-2-(3-(o-tolylsulfonyl)ureido)propanamide]	10000 to 100000 nM	16000 nM	
Cc1ccccc1S(=O)(=O)NC(=O)N[C@@H](Cc1ccc(-c2ccccc2)cc1)C(=O)N(C)c1ccc2c(c1)OCO2 [Example 69, (S)-3-([1,1′-biphenyl]-4-yl)-N-(benzo[d][1,3]dioxol-5-yl)-N-methyl-2-(3-(o-tolylsulfonyl)ureido)propanamide]	10000 to 100000 nM		
Cc1ccccc1S(=O)(=O)NC(=O)N[C@@H](Cc1ccccc1F)C(=O)N(C)c1ccc2c(c1)OCO2 [Example 70, (S)—N-(benzo[d][1,3]dioxol-5-yl)-3-(2-fluorophenyl)-N-methyl-2-(3-(o-tolylsulfonyl)ureido)propanamide]	100 to 1000 nM		
